{"source": "patent US6462086B1", "about": "“Non-malignant disease treatment with Ras antagonists” (Ramot University Authority for Applied Research and …, priority 1999, dated 2002)", "key": {"[1]": {"test_system": "lymphocyte surface markers (CD3, CD4, CD8, IA-k, Vb17, CD62L)", "assay": "FACS analysis of surface markers on lymph node lymphocytes of EAE mice", "type": "in vivo, mouse", "conditions": "percentages of positively stained cells among 10,000; EAE mice + FTS, day 10", "experimental": "Single cell suspensions were prepared from the draining lymph nodes of mice in which EAE was induced, on day 10 post immunization for EAE-induction. Cells were incubated on ice, for 30 min with 20 μl of the monoclonal FITC-conjugated anti-CD62L, anti-IA-k ([…]) and anti-Vb17 antibodies (Becton and Dickinson, USA). The proportions of cells expressing these surface markers were examined by a fluoresecence activated cell sorter (FACS), and were calculated as the percentages of positively stained cells among 10,000 cells enumerated."}, "EAN in Lewis rats": {"test_system": "EAN in Lewis rats", "assay": "Experimental autoimmune neuritis (EAN) in Lewis rats, clinical score and rotarod", "type": "in vivo, rat"}, "MRL/lpr mice [2]": {"test_system": "MRL/lpr mice", "assay": "Serum autoantibodies by ELISA in MRL/lpr and MRL/++ mice", "type": "in vivo, mouse", "conditions": "16 weeks of age", "experimental": "FTS was synthesized as previously described (13). FTS was stored in chloroform, which was evaporated under a stream of nitrogen immediately before use. The powder was dissolved in absolute ethanol and diluted to the desired concentration in sterile saline made basic with NaOH. 200 μl of carrier solution containing 100 μg of FTS (5 mg/kg) were injected intraperitoneally (i.p.) into each mouse. Control solution was prepared at the same time starting with a chloroform solution.\nMice were treated once a day, 3-5 times a week starting from 6 or 10 weeks of age until 18 weeks of age.\nThe mice were bled at 16 weeks of age by retro-orbital sinus puncture and the sera were separated by centrifugation and stored at −70° C. until assayed. The sera were tested by ELISA for the presence of different autoantibodies as previously described (15, 16). This included serum dependent (β2-GPI dependent) and independent antibodies to cardiolipin (aCL) and antibodies to single and double stranded DNA (anti-ssDNA, anti-dsDNA)."}, "MRL/lpr mice [3]": {"test_system": "MRL/lpr mice", "assay": "Lymphadenopathy and splenomegaly in MRL mice", "type": "in vivo, mouse", "experimental": "The development of generalized lymphadenopathy in the MRL/lpr mice (saline and FTS-treated) was evaluated by palpation of axillary and inguinal lymph nodes. The maximal lymph nodes score in each mouse was 4, when both axillary and inguinal lymph nodes (in both sides) were palpable. At 18 weeks of age the mice were sacrificed and the spleens and lymph nodes (axillary, inguinal and cervical) were removed and weighed."}, "MRL/lpr mice [4]": {"test_system": "MRL/lpr mice", "assay": "Open field test in MRL mice", "type": "in vivo, mouse", "conditions": "20 minutes", "experimental": "Saline-treated and FTS-treated MRL/lpr and saline-treated MRL/++ mice (n=5), were tested for spatial behavior in a novel environment in an open field. The apparatus comprised of a circular pool (120 cm diameter by 50 cm high) placed in a lighted room. The test was conducted during the light phase of day-night cycle. The mice were brought to the experimental room 1 hour before testing. Each mouse was removed gently from its cage, placed individually at the center of the field, and videotaped with a camcorder for 20 minutes. At the end of each session the pool was cleaned with paper towels moistened with ammonium glass cleaner to remove urinary trails. The frequency and duration of progression or stopping in the open field was analyzed during playback of the video records by software custom-written by Dr. David Eilam (Life Sciences Department, Tel-Aviv University). Total distance traveled, locomotion time, speed of moving, spatial distribution of explorations and latency for establishing a home base, and duration of staying there, were extracted."}, "MRL/lpr mice [5]": {"test_system": "MRL/lpr mice", "assay": "Autoantibody levels in MRL mice after 2 months FTS (Example 4, ELISA)", "type": "in vivo, mouse", "conditions": "FTS 5 mg/kg 5 days per week", "experimental": "Two models of the antiphospholipid syndrome were compared. The MRL/lpr mouse, which is a […] model due to a mutaion in the Fas gene, and Balb-C mice immunized with ApoH (β2 glucoprotein 1), which is an induced model. The effect of 2 months FTS (5 days per week, 5 mg/kg) treatment on autoantibody levels in MRL mice (age 10 weeks to 18 weeks) is presented in FIG. 14. The levels of autoantibodies were measured at age 18 weeks by routine ELISA assays (repeated measures ANOVA, p=0.016). […] Anti-ApoH and anti-dsDNA were the major autoantibody groups found. Significant, but lower levels of autoantibodies to phospholipids and single stranded DNA were found in the MRL/lpr mice compared to the MLR/++ controls."}, "[6]": {"assay": "Solubility in water and saline", "type": "physicochemical", "source_text": "In these formulations, the alkyl gallate, etc., is present in an amount of from 0.02% to about 0.05%, and the citric or phosphoric acid is present in an amount of about 0.01%. These formulations are suitable for parenteral administraiton.\nIn one embodiment of the present invention, both of these shortcomings are overcome by formulating the agent in cyclodextrin. This technology is the subject of U.S. Pat. Nos. 5,681,828 and 5,935,941. Cyclodextrins are a group of compounds consisting of, or derived from, the three parent cyclodextrins—alpha-, beta- and gamma-cyclodextrins. Alpha-, beta- and gamma-cyclodextrins are simple oligosaccharides consisting of six, seven or eight anhydroglucose residues, respectively, connected to macrocyles by alpha (1 to 4) glycosidic bonds. Each of the glucose residues of a cyclodextrin contains one primary (O6) and two secondary hydroxyls (O2 and O3) which can be substituted, for example, methylated. Many cyclodextrin preparations in practical use are mixtures of chemically individual derivatives in which only a part of hydroxy groups were substituted and which differ in number and position of these substituents."}, "[7]": {"conditions": "FTS 5 mg/kg/day i.p. days 0-10 only"}, "[8]": {"conditions": "MRL/lpr mice, age 10 to 18 weeks"}}, "note": "Entries after “also recorded” stand apart in the source; their conditions may differ."}
{"smiles": "CC(C)=CCC/C(C)=C/CC/C(C)=C/CSc1ccccc1C(=O)O", "note": "[FTS, farnesyl thiosalicylic acid]", "values": [{"measurement": "proportion of lymphocytes expressing CD3", "setting": "[1]", "value": "94.2 ± 2.7"}, {"measurement": "proportion of lymphocytes expressing CD4", "setting": "[1]", "value": "51.6 ± 1.9"}, {"measurement": "proportion of lymphocytes expressing CD8", "setting": "[1]", "value": "26.2 ± 9.2"}, {"measurement": "proportion of lymphocytes expressing CD62L", "setting": "[1]", "value": "67.1 ± 7.3"}, {"measurement": "proportion of lymphocytes expressing IA-k", "setting": "[1]", "value": "28.3 ± 3.2"}, {"measurement": "proportion of lymphocytes expressing Vb17", "setting": "[1]", "value": "11.3 ± 2.1"}, {"measurement": "recovery", "setting": "EAN in Lewis rats; [7]", "value": "recovered faster than the other groups"}, {"measurement": "severity of disease", "setting": "EAN in Lewis rats; [7]", "value": "equal severity to controls"}, {"measurement": "clinical score / rotarod, peak of disease", "setting": "EAN in Lewis rats; FTS 5 mg/kg/day i.p. days 0-28", "value": "significantly ameliorated the peak of disease"}, {"measurement": "rats with brief relapses of clinical signs during recovery", "setting": "EAN in Lewis rats; FTS days 0-10 only", "value": "Three of the 5 rats"}, {"measurement": "recovery", "setting": "EAN in Lewis rats; treatment from day 10", "value": "recovered significantly faster"}, {"measurement": "Mean clinical scores for days 15-19", "setting": "EAN in Lewis rats; treatment from day 10, ±SE, n=10, control 4.12±0.61", "value": "2.74±0.66"}, {"measurement": "levels of anti-dsDNA antibodies", "setting": "MRL/lpr mice [2]", "value": "did lower the levels; also recorded: significant decrease"}, {"measurement": "levels of anti-ssDNA antibodies", "setting": "MRL/lpr mice [2]", "value": "did not affect the levels"}, {"measurement": "levels of non-serum dependent aCL antibodies", "setting": "MRL/lpr mice [2]", "value": "did not affect the levels"}, {"measurement": "levels of β2-GPI dependent aCL antibodies", "setting": "MRL/lpr mice [2]", "value": "did lower the levels; also recorded: significant decrease"}, {"measurement": "spleen weight", "setting": "MRL/lpr mice [3]; MRL/++ mice, untreated 0.13±0.01", "value": "0.19 ± 0.03", "unit": "g"}, {"measurement": "lymphadenopathy (palpation score)", "setting": "MRL/lpr mice [3]; MRL/lpr mice", "value": "significantly delayed; also recorded: significantly less"}, {"measurement": "weight of excised lymph nodes", "setting": "MRL/lpr mice [3]; MRL/lpr mice", "value": "significant effect of FTS; also recorded: significantly less"}, {"measurement": "spleen weight", "setting": "MRL/lpr mice [3]; MRL/lpr mice, 17 weeks, mean±SE, untreated 0.54±0.04", "value": "0.41 ± 0.04", "unit": "g"}, {"measurement": "open field: time spent in the center", "setting": "MRL/lpr mice [4]", "value": "significant effect on the time spent in the center"}, {"measurement": "open field: total distance covered", "setting": "MRL/lpr mice [4]", "value": "no effect on the total distance covered"}, {"measurement": "levels of autoantibodies to phospholipids and single stranded DNA (minor antibodies)", "setting": "MRL/lpr mice [5]", "value": "did not lower significantly"}, {"measurement": "levels of anti-ApoH autoantibodies", "setting": "MRL/lpr mice [5]; [8]", "value": "Significantly lower levels"}, {"measurement": "levels of anti-double stranded DNA (dsDNA) autoantibodies", "setting": "MRL/lpr mice [5]; [8]", "value": "Significantly lower levels"}, {"measurement": "solubility in water / saline", "setting": "[6]", "value": "insoluble in water"}]}
